Reference: ChEMBL document CHEMBL5649167, “The SUV4-20 inhibitor A-196 verifies a role for epigenetics in genomic integrity” (Nat Chem Biol, 2017)

How the values were obtained:
[1] = target: D(2) dopamine receptor (Homo sapiens) (UniProt P14416); experiment: Inhibition of human D(2) dopamine receptor at 10 uM relative to control
Homo sapiens = organism: Homo sapiens; experiment: Inhibition of human SKCa channel at 10 uM relative to control
[2] = target: Vasoactive intestinal polypeptide receptor 1 (Homo sapiens) (UniProt P32241); experiment: Inhibition of human VPAC1 at 10 uM relative to control
[3] = target: Histamine H1 receptor (Homo sapiens) (UniProt P35367); experiment: Inhibition of human HH1R at 10 uM relative to control
Rattus norvegicus = organism: Rattus norvegicus; experiment: Inhibition of Rat alpha 1-Adrenoceptor at 10 uM relative to control
[4] = target: T1, 5-hydroxytryptamine receptor 1A (Homo sapiens) (UniProt P08908); experiment: Inhibition of human 5-HT1A at 10 uM relative to control
T1 sequence (whole entry): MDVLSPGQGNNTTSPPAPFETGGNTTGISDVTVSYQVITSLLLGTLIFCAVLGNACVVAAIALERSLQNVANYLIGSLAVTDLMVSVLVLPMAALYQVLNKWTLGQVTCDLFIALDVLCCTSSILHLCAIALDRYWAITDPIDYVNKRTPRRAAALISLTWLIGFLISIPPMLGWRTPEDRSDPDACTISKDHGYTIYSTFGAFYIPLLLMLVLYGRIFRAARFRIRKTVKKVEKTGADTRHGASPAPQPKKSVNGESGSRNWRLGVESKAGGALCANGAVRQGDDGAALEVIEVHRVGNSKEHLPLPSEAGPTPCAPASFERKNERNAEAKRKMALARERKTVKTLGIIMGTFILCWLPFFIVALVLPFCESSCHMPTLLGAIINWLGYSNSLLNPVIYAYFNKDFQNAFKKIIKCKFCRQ

[5] = target: 5-hydroxytryptamine receptor 6 (Homo sapiens) (UniProt P50406); experiment: Inhibition of human 5-HT6 expressed in stable HEK cells at 10 uM relative to control; assay type: cell-based
[6] = target: C-X-C chemokine receptor type 2 (Homo sapiens) (UniProt P25025); experiment: Inhibition of human CXCR2 at 10 uM relative to control
[7] = target: Kappa-type opioid receptor (Homo sapiens) (UniProt P41145); experiment: Inhibition of human kappa opioid receptor expressed in stable HEK cells at 10 uM relative to control; assay type: cell-based
[8] = target: 5-hydroxytryptamine receptor 2A (Homo sapiens) (UniProt P28223); experiment: Inhibition of human 5-HT2A at 10 uM relative to control
[9] = target: D(1A) dopamine receptor (Homo sapiens) (UniProt P21728); experiment: Inhibition of human D(1A) dopamine receptor expressed in HEK293T cells at 10 uM relative to control; assay type: cell-based
[10] = target: Adenosine receptor A1 (Homo sapiens) (UniProt P30542); experiment: Inhibition of human Adenosine receptor A1 at 10 uM relative to control
[11] = target: Beta-2 adrenergic receptor (Homo sapiens) (UniProt P07550); experiment: Inhibition of human Beta-2 adrenergic receptor at 10 uM relative to control
[12] = target: Muscarinic acetylcholine receptor M5 (Homo sapiens) (UniProt P08912); experiment: Inhibition of human Muscarinic acetylcholine receptor M5 expressed in stable Cricetulus griseus CHO cells at 10 uM relative to control; assay type: cell-based
[13] = target: Nociceptin receptor (Homo sapiens) (UniProt P41146); experiment: Inhibition of human Nociceptin receptor at 10 uM relative to control
[14] = target: Beta-2 adrenergic receptor (Homo sapiens) (UniProt P07550); experiment: Inhibition of human Beta-2 adrenergic receptor expressed in human Flp-In-293 cells at 10 uM relative to control; assay type: cell-based
[15] = target: Vasopressin V1a receptor (Homo sapiens) (UniProt P37288); experiment: Inhibition of human AVPR V1a at 10 uM relative to control
[16] = target: T2, Muscarinic acetylcholine receptor M2 (Homo sapiens) (UniProt P08172); experiment: Inhibition of human Muscarinic acetylcholine receptor M2 expressed in stable Cricetulus griseus CHO cells at 10 uM relative to control; assay type: cell-based
T2 sequence (whole entry): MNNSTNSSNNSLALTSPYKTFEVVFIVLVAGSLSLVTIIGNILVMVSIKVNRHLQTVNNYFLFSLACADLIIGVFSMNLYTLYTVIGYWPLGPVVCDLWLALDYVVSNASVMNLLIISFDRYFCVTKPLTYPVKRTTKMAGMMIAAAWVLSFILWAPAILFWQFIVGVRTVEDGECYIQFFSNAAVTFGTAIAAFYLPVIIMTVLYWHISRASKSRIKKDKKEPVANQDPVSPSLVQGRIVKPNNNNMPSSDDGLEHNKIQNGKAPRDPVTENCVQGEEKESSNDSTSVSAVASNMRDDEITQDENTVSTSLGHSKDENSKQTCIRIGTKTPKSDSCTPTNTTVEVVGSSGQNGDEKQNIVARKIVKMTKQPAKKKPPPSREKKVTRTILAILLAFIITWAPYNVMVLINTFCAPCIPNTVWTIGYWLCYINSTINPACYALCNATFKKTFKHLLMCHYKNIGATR

[17] = target: 5-hydroxytryptamine receptor 2C (Homo sapiens) (UniProt P28335); experiment: Inhibition of human 5-HT2C receptor expressed in HEK293T cells at 10 uM relative to control; assay type: cell-based
[18] = target: D(2) dopamine receptor (Homo sapiens) (UniProt P14416); experiment: Inhibition of human D(2) dopamine receptor expressed in stable human fibroblast cells at 10 uM relative to control; assay type: cell-based
[19] = target: 5-hydroxytryptamine receptor 2B (Homo sapiens) (UniProt P41595); experiment: Inhibition of human 5-HT2B receptor expressed in stable HEK cells at 10 uM relative to control; assay type: cell-based
[20] = target: Histamine H4 receptor (Homo sapiens) (UniProt Q9H3N8); experiment: Inhibition of human Histamine H4 receptor expressed in HEK293T cells at 10 uM relative to control; assay type: cell-based
[21] = target: Muscarinic acetylcholine receptor M4 (Homo sapiens) (UniProt P08173); experiment: Inhibition of human Muscarinic acetylcholine receptor M4 expressed in stable Cricetulus griseus CHO cells at 10 uM relative to control; assay type: cell-based
[22] = target: Prostaglandin E2 receptor EP4 subtype (Homo sapiens) (UniProt P35408); experiment: Inhibition of human Prostanoid EP4 receptor at 10 uM relative to control
[23] = target: 5-hydroxytryptamine receptor 2A (Homo sapiens) (UniProt P28223); experiment: Inhibition of human 5-HT2A receptor expressed in HEK293T cells at 10 uM relative to control; assay type: cell-based
[24] = target: Adenosine receptor A3 (Homo sapiens) (UniProt P0DMS8); experiment: Inhibition of human Adenosine receptor A3 at 10 uM relative to control
[25] = target: Alpha-1B adrenergic receptor (Homo sapiens) (UniProt P35368); experiment: Inhibition of human Alpha-1B adrenergic receptor expressed in HEK293T cells at 10 uM relative to control; assay type: cell-based
[26] = target: Melanocortin receptor 4 (Homo sapiens) (UniProt P32245); experiment: Inhibition of human Melanocortin receptor 4 at 10 uM relative to control
Sequence of Melanocortin receptor 4 (Homo sapiens) (P32245 whole entry): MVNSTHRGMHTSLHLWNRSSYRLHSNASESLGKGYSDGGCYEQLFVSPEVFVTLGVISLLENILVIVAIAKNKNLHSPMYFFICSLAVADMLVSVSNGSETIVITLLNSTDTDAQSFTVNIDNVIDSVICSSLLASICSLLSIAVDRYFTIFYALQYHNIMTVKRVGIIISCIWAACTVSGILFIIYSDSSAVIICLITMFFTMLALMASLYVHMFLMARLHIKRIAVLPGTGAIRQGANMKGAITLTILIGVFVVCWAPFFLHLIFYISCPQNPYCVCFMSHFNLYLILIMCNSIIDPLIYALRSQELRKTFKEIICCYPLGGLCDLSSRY

Sequence of D(2) dopamine receptor (Homo sapiens) (P14416 whole entry): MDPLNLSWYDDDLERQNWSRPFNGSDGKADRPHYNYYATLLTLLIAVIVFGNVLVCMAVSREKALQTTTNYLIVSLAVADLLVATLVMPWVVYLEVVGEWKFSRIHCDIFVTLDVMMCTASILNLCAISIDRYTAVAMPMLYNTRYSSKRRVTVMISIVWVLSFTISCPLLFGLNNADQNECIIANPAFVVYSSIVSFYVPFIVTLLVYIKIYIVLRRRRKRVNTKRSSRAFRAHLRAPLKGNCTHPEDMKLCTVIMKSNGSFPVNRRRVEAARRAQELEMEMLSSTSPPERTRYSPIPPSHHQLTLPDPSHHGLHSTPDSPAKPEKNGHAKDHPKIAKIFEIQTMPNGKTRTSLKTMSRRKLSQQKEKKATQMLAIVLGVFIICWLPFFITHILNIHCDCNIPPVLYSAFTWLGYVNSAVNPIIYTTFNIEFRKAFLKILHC
Sequence of 5-hydroxytryptamine receptor 2A (Homo sapiens) (P28223 whole entry): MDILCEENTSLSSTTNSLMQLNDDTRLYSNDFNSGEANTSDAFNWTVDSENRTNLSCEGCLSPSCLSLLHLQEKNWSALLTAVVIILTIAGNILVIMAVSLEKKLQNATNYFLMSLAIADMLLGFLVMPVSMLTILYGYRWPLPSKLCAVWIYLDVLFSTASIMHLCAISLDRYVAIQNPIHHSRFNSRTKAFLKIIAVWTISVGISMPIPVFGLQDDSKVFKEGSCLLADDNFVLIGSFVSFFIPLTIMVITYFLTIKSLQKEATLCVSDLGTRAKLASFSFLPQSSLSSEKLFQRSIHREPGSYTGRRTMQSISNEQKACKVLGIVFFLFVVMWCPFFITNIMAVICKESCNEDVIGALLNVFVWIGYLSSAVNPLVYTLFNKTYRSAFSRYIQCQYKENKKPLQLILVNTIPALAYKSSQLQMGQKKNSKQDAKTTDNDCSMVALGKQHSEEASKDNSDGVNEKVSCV
Sequence of Beta-2 adrenergic receptor (Homo sapiens) (P07550 whole entry, looked up): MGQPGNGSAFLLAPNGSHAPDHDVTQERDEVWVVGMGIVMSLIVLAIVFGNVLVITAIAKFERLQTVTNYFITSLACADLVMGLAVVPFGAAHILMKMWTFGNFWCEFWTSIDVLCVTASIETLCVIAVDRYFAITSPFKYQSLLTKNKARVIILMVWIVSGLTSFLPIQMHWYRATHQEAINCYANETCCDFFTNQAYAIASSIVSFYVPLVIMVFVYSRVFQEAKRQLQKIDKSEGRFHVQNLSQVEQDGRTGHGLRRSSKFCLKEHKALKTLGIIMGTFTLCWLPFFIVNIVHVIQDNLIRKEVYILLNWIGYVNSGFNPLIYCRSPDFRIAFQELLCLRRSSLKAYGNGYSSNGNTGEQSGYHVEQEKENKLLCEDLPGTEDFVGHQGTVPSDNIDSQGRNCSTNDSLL
Sequence of Vasoactive intestinal polypeptide receptor 1 (Homo sapiens) (P32241 whole entry): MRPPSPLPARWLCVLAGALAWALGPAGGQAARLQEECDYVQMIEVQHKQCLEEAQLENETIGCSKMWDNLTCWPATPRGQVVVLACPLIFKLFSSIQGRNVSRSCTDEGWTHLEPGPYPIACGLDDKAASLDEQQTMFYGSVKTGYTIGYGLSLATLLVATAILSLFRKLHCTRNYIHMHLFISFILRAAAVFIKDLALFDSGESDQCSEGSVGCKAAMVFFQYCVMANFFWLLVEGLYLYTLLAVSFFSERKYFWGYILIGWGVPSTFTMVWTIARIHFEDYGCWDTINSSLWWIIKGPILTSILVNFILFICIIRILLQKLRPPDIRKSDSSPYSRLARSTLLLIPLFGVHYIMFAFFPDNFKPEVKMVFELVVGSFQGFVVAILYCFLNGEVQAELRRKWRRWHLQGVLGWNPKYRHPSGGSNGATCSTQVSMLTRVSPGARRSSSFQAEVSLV
Sequence of Muscarinic acetylcholine receptor M5 (Homo sapiens) (P08912 whole entry): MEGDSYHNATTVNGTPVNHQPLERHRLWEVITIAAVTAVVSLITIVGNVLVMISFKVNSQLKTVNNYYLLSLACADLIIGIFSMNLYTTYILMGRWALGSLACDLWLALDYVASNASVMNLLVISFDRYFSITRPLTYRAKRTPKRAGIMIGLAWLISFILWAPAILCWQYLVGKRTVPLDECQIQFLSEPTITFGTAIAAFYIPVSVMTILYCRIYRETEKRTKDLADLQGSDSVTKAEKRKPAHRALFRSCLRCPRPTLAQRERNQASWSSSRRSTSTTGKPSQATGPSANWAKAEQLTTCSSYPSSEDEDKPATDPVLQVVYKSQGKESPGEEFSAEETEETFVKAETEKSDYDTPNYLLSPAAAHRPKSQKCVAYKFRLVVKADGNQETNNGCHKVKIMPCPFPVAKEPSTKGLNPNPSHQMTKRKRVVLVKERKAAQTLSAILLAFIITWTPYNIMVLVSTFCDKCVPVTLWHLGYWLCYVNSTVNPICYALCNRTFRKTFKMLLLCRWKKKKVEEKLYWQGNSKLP
Sequence of Prostaglandin E2 receptor EP4 subtype (Homo sapiens) (P35408 whole entry): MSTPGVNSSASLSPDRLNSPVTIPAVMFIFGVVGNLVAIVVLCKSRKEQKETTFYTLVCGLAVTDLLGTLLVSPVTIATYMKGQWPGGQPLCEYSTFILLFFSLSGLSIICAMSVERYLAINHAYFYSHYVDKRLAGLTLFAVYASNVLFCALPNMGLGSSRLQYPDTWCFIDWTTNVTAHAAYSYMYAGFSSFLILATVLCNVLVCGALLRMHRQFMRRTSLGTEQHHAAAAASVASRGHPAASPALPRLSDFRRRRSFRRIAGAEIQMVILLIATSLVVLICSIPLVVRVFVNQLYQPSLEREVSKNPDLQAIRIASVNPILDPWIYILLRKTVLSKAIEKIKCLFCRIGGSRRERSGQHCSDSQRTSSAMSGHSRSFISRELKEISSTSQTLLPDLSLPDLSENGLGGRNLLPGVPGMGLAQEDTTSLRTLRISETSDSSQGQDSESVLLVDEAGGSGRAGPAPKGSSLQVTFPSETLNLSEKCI
Sequence of D(1A) dopamine receptor (Homo sapiens) (P21728 whole entry): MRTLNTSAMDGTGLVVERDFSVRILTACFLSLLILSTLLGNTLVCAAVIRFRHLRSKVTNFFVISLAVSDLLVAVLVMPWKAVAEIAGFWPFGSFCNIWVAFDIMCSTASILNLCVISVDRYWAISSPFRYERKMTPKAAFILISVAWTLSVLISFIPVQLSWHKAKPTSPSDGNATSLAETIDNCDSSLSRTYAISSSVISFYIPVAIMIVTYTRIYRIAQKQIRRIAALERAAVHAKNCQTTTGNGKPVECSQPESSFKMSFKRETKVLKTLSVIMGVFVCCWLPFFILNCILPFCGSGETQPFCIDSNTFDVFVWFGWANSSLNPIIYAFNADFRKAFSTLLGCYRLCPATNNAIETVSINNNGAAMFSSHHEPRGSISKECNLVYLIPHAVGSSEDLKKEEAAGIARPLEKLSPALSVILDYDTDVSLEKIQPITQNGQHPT
Sequence of Nociceptin receptor (Homo sapiens) (P41146 whole entry): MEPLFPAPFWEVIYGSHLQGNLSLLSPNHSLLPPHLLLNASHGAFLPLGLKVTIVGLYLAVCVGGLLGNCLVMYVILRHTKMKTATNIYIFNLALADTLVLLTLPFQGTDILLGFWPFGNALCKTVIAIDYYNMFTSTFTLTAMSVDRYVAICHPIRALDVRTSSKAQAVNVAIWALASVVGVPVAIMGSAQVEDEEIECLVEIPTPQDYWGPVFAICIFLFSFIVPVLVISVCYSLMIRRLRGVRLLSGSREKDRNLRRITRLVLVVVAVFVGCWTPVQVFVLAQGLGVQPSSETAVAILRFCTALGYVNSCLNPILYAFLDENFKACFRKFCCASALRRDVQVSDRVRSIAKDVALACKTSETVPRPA
Sequence of Kappa-type opioid receptor (Homo sapiens) (P41145 whole entry): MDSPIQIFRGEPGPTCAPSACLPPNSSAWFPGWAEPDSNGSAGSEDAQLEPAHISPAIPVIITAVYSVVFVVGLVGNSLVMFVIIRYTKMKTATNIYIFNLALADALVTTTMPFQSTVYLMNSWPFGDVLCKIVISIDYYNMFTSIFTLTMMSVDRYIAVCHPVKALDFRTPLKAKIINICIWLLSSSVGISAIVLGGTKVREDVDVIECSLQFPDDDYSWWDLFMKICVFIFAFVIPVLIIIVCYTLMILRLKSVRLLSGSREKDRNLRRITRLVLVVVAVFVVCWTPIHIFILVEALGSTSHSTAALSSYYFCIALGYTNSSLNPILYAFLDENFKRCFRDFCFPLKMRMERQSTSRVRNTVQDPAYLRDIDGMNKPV
Sequence of Histamine H1 receptor (Homo sapiens) (P35367 whole entry): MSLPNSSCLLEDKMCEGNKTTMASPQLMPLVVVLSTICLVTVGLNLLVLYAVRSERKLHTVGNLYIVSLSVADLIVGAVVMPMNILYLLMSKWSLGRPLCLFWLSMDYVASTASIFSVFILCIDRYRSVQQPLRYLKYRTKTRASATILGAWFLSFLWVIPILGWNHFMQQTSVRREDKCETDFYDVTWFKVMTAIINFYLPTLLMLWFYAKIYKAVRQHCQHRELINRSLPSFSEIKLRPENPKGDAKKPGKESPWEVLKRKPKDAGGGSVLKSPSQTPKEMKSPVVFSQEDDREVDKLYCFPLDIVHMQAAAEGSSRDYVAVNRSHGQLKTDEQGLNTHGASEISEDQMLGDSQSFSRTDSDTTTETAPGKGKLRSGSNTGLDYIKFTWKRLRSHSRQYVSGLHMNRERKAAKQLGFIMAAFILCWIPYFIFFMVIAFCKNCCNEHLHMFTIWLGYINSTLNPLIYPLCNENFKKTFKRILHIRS

Row | inhibition [1] [%] | inhibition (Homo sapiens) [%] | inhibition [2] [%] | inhibition [3] [%] | inhibition (Rattus norvegicus) [%] | inhibition [4] [%] | inhibition [5] [%] | inhibition [6] [%] | inhibition [7] [%] | inhibition [8] [%] | inhibition [9] [%] | inhibition [10] [%] | inhibition [11] [%] | inhibition [12] [%] | inhibition [13] [%] | inhibition [14] [%] | inhibition [15] [%] | inhibition [16] [%] | inhibition [17] [%] | inhibition [18] [%] | Compound | further results
1 | 3 | 3 | -5 | 1 | 5 | 5 | -2 | -1 | 26 | -1 | 2 | 98 | 9 | -1 | 13 | 20 | 4 | -1 | 8 | -6 | Clc1cc2c(NC3CCCC3)nnc(-c3ccncc3)c2cc1Cl | inhibition [19]: 16%; inhibition [20]: -6%; inhibition [21]: -3%; inhibition [22]: 7%; inhibition [23]: 39%; inhibition [24]: 74%; inhibition [25]: 1%; inhibition [26]: 14%
2 | 13 | -5 | -4 | 3 | 12 | -1 | -1 | 8 | 54 | -5 | -1 | 55 | 10 | -4 | 0 | 17 | 96 | -5 | 13 | 39 | O=C(c1nnc(NC2CCCC2)c2cc(Cl)c(Cl)cc12)N1CCC(O)CC1 | inhibition [19]: 4%; inhibition [20]: -3%; inhibition [21]: -7%; inhibition [22]: -2%; inhibition [23]: 81%; inhibition [24]: 27%; inhibition [25]: -4%; inhibition [26]: -1%
